These results are taken from patent US6350476B1, “Herbal chinese joint complex” (Shanxi Zhengzhon Pharmaceutical Co., Ltd., priority 2000, dated 2002).

Molecules are shown by their SMILES.

The subject of data set [1] is inflammation of primary arthritis caused by injection of Freund's complete adjuvant (rat hind paw). In words: Animal Study 2: primary arthritis caused by Freund's complete adjuvant, treatment one week after injection. The format is in vivo. As to conditions: rats. The procedure: (§1) The compositions used in these experiments were prepared by the Pharmaceutical Preparation Room of Taiyuan Rheumatoid Arthritis Hospital using the procedures outlined above. Distilled water was added to prepare a suspension of the density required for the tests.
(§2) Aspirin (99.6%) was manufactured by Nanjing Pharmacy. A 10% of gum acacia solution was added to prepare a suspension of the density required for the test.
(§3) Distilled water was used for the control groups.
Male rats were randomly divided into four groups of ten rats each, with the total weight of each group being 172.5±8.0 g. The perimeters of the left and right rat hind paws were measured. 0.1 ml of Freund's complete adjuvant was intradermally injected into each rat's right hind paw to induce inflammation. One week after injection of Freund's complete adjuvant, each group of rats was fed either water (control), aspirin (0.15 g/kg of body weight), or the composition disclosed in U.S. Pat. No. 5,908,628 (either 1.5 g or 3.0 g/kg of body weight) by means of gastrogavage. The hind paws were observed and measured 1, 4 and 7 days after receiving treatments of either water, aspirin or the composition disclosed in U.S. Pat. No. 5,908,628. Results of the treatments were determined by measuring the degree of swelling of the injected versus non-injected hind paws, changes in body weight, the number of tubercles, and an overall visual score of the difference between the injected and non-injected paws. The visual score included observations on erythema of the ears and the swelling of the hind paws, ankle joints, and paw joints.

Data set [2] has the same test system. In words: Animal Study 1: primary arthritis caused by Freund's complete adjuvant, treatment before injection. The data set is classed as in vivo. As to conditions: rats, 0.15 g/kg gastrogavage once a day for 3 days. The procedure:
as §1, §2, §3
Male rats were randomly divided into four groups of ten rats each, with the total weight of each group being 172.5±8.0 g. The perimeters of the rat hind paws were measured. Each group of rats was fed either water (control), aspirin (0.15 g/kg of body weight), or the composition disclosed in U.S. Pat. No. 5,908,628 (either 1.5 g or 3.0 g/kg of body weight) by means of gastrogavage, once a day for 3 days. On the third day, 1 hour after the gastrogavage, 0.1 ml of Freund's complete adjuvant was intradermally injected into each rat's right hind paw to induce inflammation. The perimeters of the left and right hind paws were measured 2, 4, 6, 24, 48 and 72 hours after inflammation.

Data set [3] deals with writhing caused by injection of 0.5% acetic acid. In words: Animal Study 8: writhing reaction caused by injection of 0.5% acetic acid. The format is in vivo. As to conditions: mice, 0.2 g/kg gastrogavage. Here is the method:
as §1, §2, §3
This test measures the analgesic action of the composition disclosed in U.S. Pat. No. 5,908,628 on writhing caused by injection of 0.5% acetic acid according to the procedure established by Chen Qi. Methodology of Chinese Herbs Pharmacologic Research, The People's Public Health Publishing House, 378 (1993).
The mice are randomly divided into 4 groups, each of which consists of 10 male and 10 female mice, with the total weight of each group being 20.9±1.1 g. […] Pat. No. […] One hour after the gastrogavage, a solution of (I.P.) 0.5% acetic acid (0.2 ml/20 g) was injected into the mice. The number of writhing reactions was counted during the 30 minutes immediately following the injection.
A general note: In writhing tests, fewer writhes than in controls are read as antinociception.

Data set [4] concerns hyperplasia of connective tissues (granulomatosis). The data set is described as follows: Animal Study 6: granulomatosis induced by Cotton Pallet Method. The data set is classed as in vivo. As to conditions: rats; 0.1 g/kg gastrogavage once daily for 8 days. The procedure: as §1, §2, §3
This test was conducted according to the procedure established by the Medication Dept. of the Public Health Ministry (Collection of Guiding Principles on Western Medicine's Pre-Clinical Research, 271 (1993)). Rats were randomly assigned to one of 4 groups, each group consisting of 8 rats with a total weight 157.8±9.0 g. The rats in each group were anesthetized, tiny incisions were cut on the left and right groins, and 10 mg of sterilized cotton was placed inside each cut. […] On the day following the last gastrogavage, the cotton and any granuloma deposits thereon were removed from the incisions, dried at a temperature of 60° C. for 12 hours, after which they were individually weighed. The weight of the granuloma deposits was calculated by subtracting […] (i.e., 10 mg). […] The Inhibitory Ratio is calculated as follows: […]

Data set [5] has as its system fever caused by yeast injection. The data set is described as follows: Animal Study 7: anti-pyretic action on pyrexial rat caused by injection of fresh yeast. The data set is classed as in vivo. As to conditions: rats, 0.15 g/kg gastrogavage. The procedure: as §1, §2, §3
This test was conducted according to the procedure established by Chen Qi, The People's Public Health House, 271 (1993).
The rats were randomly divided into 4 groups, each group weighing 210.0±10.9 g and consisting of 5 male and 5 female rats each. Rats were maintained in the test environmental conditions for 3 days during which their anal temperatures were recorded twice daily. On the fourth day the anal temperature was measured every half hour. Next, a 15% solution of fresh yeast suspension (2 ml/100 g) was injected into the back of each rat. Anal temperature was measured 4 hours later. The rats whose temperatures rose above 1° C. were divided into 4 groups, each group consisting of 10 rats. Each group of rats was fed either water (control), aspirin (0.15 g/kg of body weight), or the composition disclosed in U.S. Pat. No. 5,908,628 (either 1.5 g or 3.0 g/kg of body weight) by means of gastrogavage. Anal temperatures were determined 1, 2, 3 and 4 hours after the gastrogavage.

Data set [6] relates to increased capillary permeability induced by I.P. 0.7 acetic acid in mice. In words: Animal Study 5: capillary permeability induced by glacial acetic acid. The data set is classed as in vivo. As to conditions: 0.15 g/kg gastrogavage, 20 minutes after injection. The procedure:
as §1, §2, §3
This test was conducted according to the procedure established by Chen Qi, The People's Public Health House, 303 (1993). Mice were randomly assigned to one of 4 groups, each group having a total weight of 21.8±1.9 g and consisting of 5 male and 5 female mice each. Each group of mice was fed either water (control), aspirin (0.15 g/kg of body weight), or the composition disclosed in U.S. Pat. No. 5,908,628 (either 1.5 g or 3.0 g/kg of body weight) by means of gastrogavage. One hour after the gastrogavage, a solution consisting of 0.5% Evans blue and (I.P.) 0.7% glacial acetic acid 0.1 m/10 g (body weight) was hypodermically injected into the mice. I.P. densitometry values were collected 20 minutes after the injection.

Data set [7] has as its system carrageenin-induced edematous footpad in mice. In words: Animal Study 3: carrageenin-induced edematous footpad. The format is in vivo. As to conditions: 0.15 g/kg gastrogavage once a day for 8 days. Here is the method: as §1, §2, §3
This test was conducted according to the procedure established by Xu-Shu-Yun, Methodology of the Pharmacologic Experiments, The People's Public Health Publishing House, 717 (1991). Male mice were randomly assigned to one of four groups of ten mice each, each group weighing 22.5±2.1 g. Each group of mice was fed either water (control), aspirin (0.15 g/kg of body weight), or the composition disclosed in U.S. Pat. No. 5,908,628 (either 1.5 g or 3.0 g/kg of body weight) by means of gastrogavage, once a day for 8 days. On the eighth day, 1 hour after the gastrogavage, 0.1 ml of a 1.0% carrageenin solution was hypodermically injected into the right ankle joint. Using a volumometer, the volumes of the paw and ankle joints were measured 0.5, 1, 2, 3 and 4 hours after inflammation and the values were used to calculate a swelling value.
For orientation: In the carrageenan paw model, swelling and tenderness develop within hours.

The conditions of data set [8]: as little as; cited from earlier work.

On to `CC(=O)Oc1ccccc1C(=O)O` [Aspirin, acetylsalicylic acid], for which, in data set [1] (0.15 g/kg), the “No. of Tubercles” value is 1 and the “Visual Score” value is 1. Also, the Swelling in data set [1] (0.15 g/kg gastrogavage one week after adjuvant injection) was found to be 0.0 ± 0.57 mm. Moreover, the “Swelling Measurement, 2 h” value in data set [2] (2 h after inflammation) is listed as 2.40 ± 1.08 mm. Further, in data set [2] (4 h after inflammation), the “Swelling Measurement, 4 h” value amounted to 4.40 ± 1.57 mm. Besides, the “Swelling Measurement, 6 h” value in data set [2] (6 h after inflammation) came to 5.30 ± 1.34 mm. The “Swelling Measurement, 24 h” value in data set [2] (24 h after inflammation) is listed as 3.20 ± 0.92 mm. Moreover, in data set [2] (48 h after inflammation), the “Swelling Measurement, 48 h” value was determined as 5.01 ± 1.92 mm. The “Swelling Measurement, 72 h” value in data set [2] (72 h after inflammation) amounted to 5.80 ± 1.75 mm. Moreover, the “Analgesic Rate (%)” value in data set [3] amounted to 63.31%. Besides, in data set [3] (30 minutes following acetic acid injection), the “Writhing Quantity” value is 24.4 ± 10.0. In addition, in data set [4], the “Dry Weight of the granuloma” value was 10.1 ± 1.6 mg/100 g and the Inhibitory rate % was determined as 17.89%. Also, in data set [5] (1 hr after the gastrogavage), the “Changes in Body Temperature after injection with yeast, 1 hr” value is 37.9 ± 0.9 °C. For the same molecule, the “Changes in Body Temperature after injection with yeast, 2 hr” value in data set [5] (2 hr after the gastrogavage) was 37.6 ± 0.9 °C. Also, in data set [5] (3 hr after the gastrogavage), the “Changes in Body Temperature after injection with yeast, 3 hr” value came out at 37.8 ± 1.0 °C. For the same molecule, the “Changes in Body Temperature after injection with yeast, 4 hr” value in data set [5] (4 hr after the gastrogavage) was found to be 38.3 ± 0.7 °C. In addition, the “Evans blue (densitometry)” value in data set [6] stood at 0.231 ± 0.07. In addition, the “Degree of swelling of Hind Paw, 0.5 hr after injection” value in data set [7] (0.5 hr) was determined as 0.08 ± 0.03 mL. For the same molecule, the “Degree of swelling of Hind Paw, 1 hr after injection” value in data set [7] (1 hr) was determined as 0.12 ± 0.03 mL. Moreover, in data set [7] (2 hr), the “Degree of swelling of Hind Paw, 2 hr after injection” value was determined as 0.03 ± 0.02 mL. Besides, the “Degree of swelling of Hind Paw, 3 hr after injection” value in data set [7] (3 hr) came out at 0.01 ± 0.01 mL. For the same molecule, the “Degree of swelling of Hind Paw, 4 hr after injection” value in data set [7] (4 hr) turned out to be 0.01 ± 0.0 mL.
On to `COc1cc2c(c(OC)c1OC)-c1ccc(OC)c(=O)cc1[C@@H](NC(C)=O)CC2` [colchicine], for which the “smallest amount found to be fatal” value in data set [8] is given as 7 mg.
